These results are taken from publication PMC9322122, “Development of (4-Phenylamino)quinazoline Alkylthiourea Derivatives as Novel NF-κB Inhibitors” (Pharmaceuticals, 2022).

One series deals with NF-κB. The series is described as follows: NF-κB luciferase reporter assay. Type of series: cell-based. The settings on record: Homo sapiens, NF-κB-luciferase-transfected HEK293 cells, TNFα 50 ng/mL; for inhibition at 10 µM: mean ± SEM, n = 3, read-out: NF-κB Luciferase Activity Inh %. As to the method:
NF-κB Luciferase Reporter Vector was purchased from Signosis (Santa Clara, CA, USA) and transfected into HEK-293 cells using FuGENE HD (Promega, Fitchburg, MA, USA) following the manufacturer’s protocol. The transfected cells were incubated in serum-free DMEM for 16 h and then treated with DMSO or indicated compounds. After 3 h, cells were treated with or without 50 ng/mL of Recombinant Human TNFα Protein (R&D systems, Minneapolis, MN, USA) for another 3 h. The protein lysates were analyzed using Steady-Glo® Luciferase Assay System (Promega, Fitchburg, MA, USA) and TECAN Infinite 200 pro (Männedorf, Switzerland).

Series [1] is described as follows: Cell viability (WST-1), HEK293. Type of series: cell-based. The settings on record: human, HEK293 cells, mean ± SEM, n = 3. As to the method:
(§1) Cells were incubated with the WST-1 reagent (Thermo Fisher Scientific, Waltham, MA, USA) at 37 °C for 2 h. The cell viability was determined by spectrophotometer at 450 nm.

For another series, the target named is Recombinant EGFR kinase (Homo sapiens, UniProt P00533). Kind of series: Recombinant EGFR kinase activity. The note with it: read-out: Recombinant EGFR Kinase Activity (%inh at 150 nM). Type of series: biochemical.
The nature of series [2]: Cell viability (WST-1), A549. The settings on record: human, A549 cells, mean ± SEM, n = 3. Type of series: cell-based. As for the experimental part: as §1
In general terms: Formazan colour is commonly taken as a measure of viable cells.

The subject of the next series is dTHP−1 cells. Kind of series: Cell viability of dTHP-1 cells with or without LPS. Type of series: cell-based, human. The settings on record: in % (unit assumed). As for the experimental part: (§2) The HEK-293 (ATCC Cat# CRL-1573, RRID:CVCL_0045) and human monocytic THP−1 cells (ATCC Cat# TIB-202, RRID:CVCL_0006) were, respectively, cultured in DMEM and RPMI 1640 media supplemented with 10% fetal bovine serum, 2 mM L-glutamine, and 1× Antibiotic-Antimycotic at 37 °C in a humidified incubator with 5% CO2. THP−1 cells were differentiated by 100 nM phorbol-12-myristate-13-acetate (PMA) for 4 h and then rested for 44 h as dTHP−1 cells.
as §1
(§3) The dTHP−1 cells were treated with indicated compounds for 3 h and then activated with or without 100 ng/mL lipopolysaccharide (LPS; E. coli 0111:B4) for another 24 h. The levels of human IL-6 and TNFα in supernatants were measured by DuoSet® ELISA Development System (R&D systems, Minneapolis, MN, USA) according to the manufacturer’s protocol.

For the next series, the system named is TNFα production. Kind of series: TNFα production in LPS-activated dTHP-1 cells (ELISA). It is filed as cell-based. The note with it: Homo sapiens. As for the experimental part:
as §2, §3

Another series deals with IL-6 production. The series is described as follows: IL-6 production in LPS-activated dTHP-1 cells (ELISA). The note with it: Homo sapiens. Type of series: cell-based, human. As to the method:
as §2, §3
(In general: ELISA stands for enzyme-linked immunosorbent assay.)

Where [3] appears, read: LPS-activated dTHP-1 cells, 24 h.

Recombinant EGFR kinase, sequence (P00533 25-1210): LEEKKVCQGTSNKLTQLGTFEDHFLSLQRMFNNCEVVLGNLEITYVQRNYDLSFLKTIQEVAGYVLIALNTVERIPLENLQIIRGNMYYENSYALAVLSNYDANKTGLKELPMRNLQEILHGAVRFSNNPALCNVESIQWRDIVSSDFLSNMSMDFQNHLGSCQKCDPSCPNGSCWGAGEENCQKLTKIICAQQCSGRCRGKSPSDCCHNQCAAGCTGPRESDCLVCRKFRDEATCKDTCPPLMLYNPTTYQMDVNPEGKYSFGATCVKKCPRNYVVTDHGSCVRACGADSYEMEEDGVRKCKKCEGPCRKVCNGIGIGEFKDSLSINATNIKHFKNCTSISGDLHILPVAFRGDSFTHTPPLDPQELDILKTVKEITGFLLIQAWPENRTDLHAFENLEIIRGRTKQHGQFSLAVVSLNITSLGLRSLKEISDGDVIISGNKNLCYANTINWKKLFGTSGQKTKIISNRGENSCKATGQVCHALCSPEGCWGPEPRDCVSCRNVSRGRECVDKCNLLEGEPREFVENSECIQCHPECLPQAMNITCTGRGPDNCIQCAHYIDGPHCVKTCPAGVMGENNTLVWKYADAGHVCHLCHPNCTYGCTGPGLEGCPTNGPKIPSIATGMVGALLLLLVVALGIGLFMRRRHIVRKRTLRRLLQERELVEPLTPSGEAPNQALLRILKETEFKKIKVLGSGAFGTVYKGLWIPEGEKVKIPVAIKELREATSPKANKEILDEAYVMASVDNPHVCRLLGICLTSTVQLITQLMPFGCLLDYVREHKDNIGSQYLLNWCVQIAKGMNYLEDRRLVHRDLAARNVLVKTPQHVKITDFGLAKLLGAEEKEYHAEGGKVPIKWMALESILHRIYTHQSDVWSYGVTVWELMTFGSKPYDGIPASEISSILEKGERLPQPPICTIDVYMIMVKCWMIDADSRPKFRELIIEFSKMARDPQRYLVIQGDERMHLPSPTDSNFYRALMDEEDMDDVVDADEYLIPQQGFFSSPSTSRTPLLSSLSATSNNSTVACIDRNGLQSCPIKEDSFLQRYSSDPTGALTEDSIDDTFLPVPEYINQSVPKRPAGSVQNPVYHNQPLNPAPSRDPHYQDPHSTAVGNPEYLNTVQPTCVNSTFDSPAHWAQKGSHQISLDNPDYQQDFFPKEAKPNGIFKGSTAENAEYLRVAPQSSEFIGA

`CC(C)(C)c1ccc(CNC(=S)Nc2ccc3ncnc(Nc4cccc(Cl)c4)c3c2)cc1` [Compound 1, 1-(4-(tert-Butyl)benzyl)-3-(4-((3-chlorophenyl)amino)quinazolin-6-yl)thiourea] gave a melting point of 203 to 205 °C. Moreover, in the series on NF-κB, the inhibition at 10 µM worked out at 41.6 ± 3.8% and the IC50 was over 10 µM. Also, the viability at 10 µM in series [1] was 73.9 ± 4.6%. In addition, the inhibition at 0.15 µM at Recombinant EGFR kinase was 42%. For the same compound, the viability at 10 µM in series [2] amounted to 91.1 ± 3.4%.
`COc1ccc(CNC(=S)Nc2ccc3ncnc(Nc4cccc(Cl)c4)c3c2)cc1` [Compound 2, 1-(4-((3-Chlorophenyl)amino)quinazolin-6-yl)-3-(4-methoxybenzyl)thiourea] gave a melting point of 165 to 167 °C. For the same compound, in the series on NF-κB, the inhibition at 10 µM turned out to be 94.6 ± 0.1% and inhibition was half-maximal at 1.7 µM (IC50). In series [1], the viability at 10 µM was 101 ± 7.4%. Moreover, on Recombinant EGFR kinase, the inhibition at 0.15 µM came to 67%. In addition, the viability at 10 µM in series [2] came to 95.4 ± 1.9%. Further, the “Cell viability of dTHP-1 cells, 5 μM, LPS” value in the series with dTHP−1 cells (5 μM (so in the source), LPS 100 ng/mL for 24 h) came out at 78.8 ± 5.3. For the same compound, the “Cell viability of dTHP-1 cells, 5 μM, without LPS” value with dTHP−1 cells (5 μM (so in the source), no LPS) turned out to be 94.2 ± 1.6. Also, the “Cell viability of dTHP-1 cells, 7.5 μM, LPS” value with dTHP−1 cells (7.5 μM, LPS 100 ng/mL for 24 h) is recorded as 57.5 ± 1.4. The “Cell viability of dTHP-1 cells, 7.5 μM, without LPS” value with dTHP−1 cells (7.5 μM, no LPS) is given as 99.2 ± 1.5. Moreover, the inhibition at 7.5 µM in the series with TNFα production (7.5 μM, LPS 100 ng/mL for 24 h, dTHP-1 cells, read-out: TNFα Production Inh % (7.5 μM)) amounted to 32.5 ± 8.5%. Besides, in the series on TNFα production (15 μM, LPS 100 ng/mL for 24 h, dTHP-1 cells, read-out: TNFα Production Inh % (15 μM)), the inhibition at 15 µM is 60.4 ± 1.8%. Also, the IC50 with TNFα production (setting [3]) was 10.2 ± 0.27 µM. The inhibition at 7.5 µM in the series on IL-6 production (7.5 μM, LPS 100 ng/mL for 24 h, dTHP-1 cells, read-out: IL-6 Production Inh % (7.5 μM)) was 76.2 ± 13.3%. Also, in the series on IL-6 production (15 μM, LPS 100 ng/mL for 24 h, dTHP-1 cells, read-out: IL-6 Production Inh % (15 μM)), the inhibition at 15 µM was 87.5 ± 6.8%. Further, the IC50 in the series on IL-6 production (setting [3]) amounted to 1.2 ± 0.12 µM.
`FC(F)(F)c1ccc(CNC(=S)Nc2ccc3ncnc(Nc4cccc(Cl)c4)c3c2)cc1` [Compound 3, 1-(4-((3-Chlorophenyl)amino)quinazolin-6-yl)-3-(4-(trifluoromethyl)benzyl)thiourea] gave a melting point of 165 to 167 °C. In the series on NF-κB, the inhibition at 10 µM worked out at 46.5 ± 4.9% and the IC50 is over 10 µM. Further, in series [1], the viability at 10 µM came out at 68.9 ± 6.4%. Moreover, the inhibition at 0.15 µM at Recombinant EGFR kinase was found to be 70%. Besides, the viability at 10 µM in series [2] is 73.4 ± 4.3%.
In the case of `S=C(NCc1ccc(Cl)cc1)Nc1ccc2ncnc(Nc3cccc(Cl)c3)c2c1` [Compound 4, 1-(4-Chlorobenzyl)-3-(4-((3-chlorophenyl)amino)quinazolin-6-yl)thiourea], the melting point was 166 to 168 °C. In addition, in the series on NF-κB, the inhibition at 10 µM worked out at 31.9 ± 9.6% and the IC50 is over 10 µM. Also, the viability at 10 µM in series [1] worked out at 95.9 ± 3.4%. For the same compound, the inhibition at 0.15 µM on Recombinant EGFR kinase is 56%. The viability at 10 µM in series [2] was found to be 98.1 ± 1.9%.
`Fc1ccc(CNC(=S)Nc2ccc3ncnc(Nc4cccc(Cl)c4)c3c2)cc1` [Compound 5, 1-(4-((3-Chlorophenyl)amino)quinazolin-6-yl)-3-(4-fluorobenzyl)thiourea] showed a melting point of 164 to 166 °C. Besides, in the series on NF-κB, the inhibition at 10 µM came to 79.1 ± 0.8% and the half-inhibitory concentration (IC50) worked out at 1.9 µM. Moreover, in series [1], the viability at 10 µM came to 67 ± 6.1%. On Recombinant EGFR kinase, the inhibition at 0.15 µM turned out to be 72%. The viability at 10 µM in series [2] amounted to 65.3 ± 1.1%.
Compound `COc1cccc(CNC(=S)Nc2ccc3ncnc(Nc4cccc(Cl)c4)c3c2)c1` [Compound 8, 1-(4-((3-Chlorophenyl)amino)quinazolin-6-yl)-3-(3-methoxybenzyl)thiourea] returned a melting point of 183 to 185 °C. Also, in the series on NF-κB, the inhibition at 10 µM worked out at 76.1 ± 2.6% and the IC50 worked out at 2.3 µM. In addition, the viability at 10 µM in series [1] was 100 ± 6.9%. Also, the inhibition at 0.15 µM at Recombinant EGFR kinase stood at 40%. In series [2], the viability at 10 µM was determined as 101 ± 2.3%.
For the compound `S=C(NCc1cccs1)Nc1ccc2ncnc(Nc3cccc(Cl)c3)c2c1` [Compound 9, 1-(4-((3-Chlorophenyl)amino)quinazolin-6-yl)-3-(thiophen-2-yl-methyl)thiourea], the melting point lay in the range of 178.8 to 180.7 °C. In addition, in the series on NF-κB, the inhibition at 10 µM is 98 ± 0.4% and the half-inhibitory concentration (IC50) stood at 2.8 µM. In series [1], the viability at 10 µM was 13.9 ± 0.7%. Also, the inhibition at 0.15 µM at Recombinant EGFR kinase turned out to be 69.8%. Besides, the viability at 10 µM in series [2] turned out to be 50.7 ± 2.4%.
On to `S=C(NCc1ccco1)Nc1ccc2ncnc(Nc3cccc(Cl)c3)c2c1` [Compound 10, 1-(4-((3-Chlorophenyl)amino)quinazolin-6-yl)-3-(furan-2-ylmethyl)thiourea], for which the melting point fell in the range of 195.6 to 198.2 °C. In the series with NF-κB, the inhibition at 10 µM amounted to 76.1 ± 2.3% and the IC50 is 4.3 µM. Also, the viability at 10 µM in series [1] is 71.7 ± 3.1%. Also, the inhibition at 0.15 µM on Recombinant EGFR kinase stood at 79.1%. In series [2], the viability at 10 µM came to 74.4 ± 11.7%.
`S=C(NCc1cccnc1)Nc1ccc2ncnc(Nc3cccc(Cl)c3)c2c1` [Compound 11, 1-(4-((3-Chlorophenyl)amino)quinazolin-6-yl)-3-(pyridin-3-ylmethyl)thiourea] gave a melting point of 205.6 to 207.9 °C. Also, in the series on NF-κB, the inhibition at 10 µM turned out to be 44.7 ± 5.8% and the IC50 was over 10 µM. For the same compound, the viability at 10 µM in series [1] turned out to be 62.8 ± 4%. The inhibition at 0.15 µM at Recombinant EGFR kinase came out at 66%. In series [2], the viability at 10 µM came out at 98.9 ± 4.1%.
`O=C(NCc1cccc(Cl)c1)Nc1ccc2ncnc(Nc3cccc(Cl)c3)c2c1` [Compound 12, 1-(3-Chlorobenzyl)-3-(4-((3-chlorophenyl)amino)quinazolin-6-yl)urea] yielded a melting point of 225.5 to 227 °C. Further, in the series with NF-κB, the inhibition at 10 µM came out at 42.7 ± 9.3% and the IC50 was over 10 µM. Besides, the viability at 10 µM in series [1] turned out to be 114 ± 3.2%. Moreover, the inhibition at 0.15 µM at Recombinant EGFR kinase was 34.6%. The viability at 10 µM in series [2] worked out at 101 ± 4.2%.
Regarding `O=C(NCc1cccc(F)c1)Nc1ccc2ncnc(Nc3cccc(Cl)c3)c2c1` [Compound 13, 1-(4-((3-Chlorophenyl)amino)quinazolin-6-yl)-3-(3-fluorobenzyl)urea], the melting point was 210.8 to 212 °C. In the series with NF-κB, the inhibition at 10 µM is 53.3 ± 10% and the IC50 came out at 8.1 µM. For the same compound, the viability at 10 µM in series [1] amounted to 95.5 ± 6.1%. On Recombinant EGFR kinase, the inhibition at 0.15 µM turned out to be 23.3%. For the same compound, in series [2], the viability at 10 µM came to 104 ± 5%.
`C#Cc1cccc(Nc2ncnc3ccc(NC(=O)NCc4cccc(Cl)c4)cc23)c1` [Compound 14, 1-(3-Chlorobenzyl)-3-(4-((3-ethynylphenyl)amino)quinazolin-6-yl)urea] gave a melting point of 222.4 to 228.8 °C. Besides, in the series with NF-κB, the inhibition at 10 µM amounted to 58.5 ± 0.9% and it took 8 µM to reach half-maximal inhibition (IC50). In addition, in series [1], the viability at 10 µM amounted to 110 ± 2.7%. The inhibition at 0.15 µM at Recombinant EGFR kinase amounted to 44.5%. The viability at 10 µM in series [2] is 98.6 ± 3%.
In turn, `O=C(NC(=O)c1ccccc1)Nc1ccc2ncnc(Nc3cccc(Cl)c3)c2c1` [Compound 15, N-((4-((3-Chlorophenyl)amino)quinazolin-6-yl)carbamoyl)benzamide] returned a melting point of 252.4 to 254 °C. In the series with NF-κB, the inhibition at 10 µM came out at 48.3 ± 9.3% and the IC50 was over 10 µM. Moreover, in series [1], the viability at 10 µM turned out to be 114 ± 2.6%. At Recombinant EGFR kinase, the inhibition at 0.15 µM is 26%. Moreover, the viability at 10 µM in series [2] turned out to be 100 ± 4.5%.
`O=C(NC(=S)Nc1ccc2ncnc(Nc3cccc(Cl)c3)c2c1)c1ccccc1` [Compound 16, N-((4-((3-Chlorophenyl)amino)quinazolin-6-yl)carbamothioyl)benzamide] gave a melting point of 186.1 to 188.5 °C. Moreover, in the series with NF-κB, the inhibition at 10 µM is 58.2 ± 5.2% and the IC50 was 7 µM. Further, in series [1], the viability at 10 µM was found to be 102 ± 4%. The inhibition at 0.15 µM at Recombinant EGFR kinase is 48.9%. In series [2], the viability at 10 µM came to 102 ± 1.6%.

What is called melting point is the temperature of the solid-liquid transition. The term IC50 denotes the midpoint of a concentration-inhibition curve. A higher IC50 goes with lower potency. As usually defined, the viability is a read-out of living cells in per cent, often relative to untreated cells.
